According to the supplement of paper PMC12592484:

How the values were obtained:
Experiment in all cases: drug sensitivity score (DSS2, normalised partial AUC of dose-response, 72 h CellTiter-Glo viability) (DSS (dimensionless)); higher = more sensitive (stronger growth inhibition / cytotoxicity); extreme values may be limits of the assay
CAF#7 = tested on: CAF#7 (primary prostate cancer-associated fibroblasts of myCAF-like type)
How it was run: (§1)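 Five doses spanning a 10,000-fold range were pre-dispensed into 384-well plates, into which low-passage primary prostate cancer-associated fibroblasts, PF179T, WPMY-1, LNCaP and 22Rv1 cells were seeded. After 72 h, CellTiter-Glo 2.0 luminescence measured viability, scaled to vehicle and positive-control wells. Higher values of the drug sensitivity score, a BREEZE-computed partial area under the fitted logistic dose–response curve divided by the log of the upper asymptote, mean greater sensitivity.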

WPMY-1 = tested on: WPMY-1
How it was run: as §1

CAF#2 = tested on: CAF#2 (primary prostate cancer-associated fibroblasts of iCAF-like type)
How it was run: as §1

CAF#4 = tested on: CAF#4 (primary prostate cancer-associated fibroblasts of iCAF-like type)
How it was run: as §1

CAF#3 = tested on: CAF#3 (primary prostate cancer-associated fibroblasts of myCAF-like type)
How it was run: as §1

LNCAP = tested on: LNCAP
How it was run: as §1

22Rv1 = tested on: 22Rv1
How it was run: as §1

CAF#5 = tested on: CAF#5 (primary prostate cancer-associated fibroblasts of myCAF-like type)
How it was run: as §1

CAF#6 = tested on: CAF#6 (primary prostate cancer-associated fibroblasts of iCAF-like type)
How it was run: as §1

PF179T = tested on: PF179T
How it was run: as §1

CAF#1 = tested on: CAF#1 (primary prostate cancer-associated fibroblasts of myCAF-like type)
How it was run: as §1

Row | SMILES | drug sensitivity score (CAF#7) | drug sensitivity score (WPMY-1) | drug sensitivity score (CAF#2) | drug sensitivity score (CAF#4) | drug sensitivity score (CAF#3) | drug sensitivity score (LNCAP) | drug sensitivity score (22Rv1) | drug sensitivity score (CAF#5) | drug sensitivity score (CAF#6) | drug sensitivity score (PF179T) | drug sensitivity score (CAF#1)
1 | CC#CC(=O)N1CCC[C@H]1c1nc(-c2ccc(C(=O)Nc3ccccn3)cc2)c2c(N)nccn12 [Acalabrutinib] (tested concentration range 0.1-1000 nM) | 0 | 0 | 0.4 | 0 | 0 | 0 | 0 | 0.8 | 0 | 0 | 0.1
2 | COc1cc(C)c(/C=C/C(C)=C/C=C/C(C)=C/C(=O)O)c(C)c1C [Acitretin] (tested concentration range 1-10000 nM) | 0 | 0 | 4 | 0.1 | 0.2 | 0 | 0 | 0.8 | 0.4 | 6.3 | 1.7
3 | C=CCn1c(=O)c2cnc(Nc3ccc(N4CCN(C)CC4)cc3)nc2n1-c1cccc(C(C)(C)O)n1 [Adavosertib] (tested concentration range 1-10000 nM) | 7.3 | 21.5 | 10.3 | 8.9 | 2.7 | 17 | 11.9 | 5.9 | 4 | 10.4 | 7.3
4 | CN(C)C/C=C/C(=O)Nc1cc2c(Nc3ccc(F)c(Cl)c3)ncnc2cc1O[C@H]1CCOC1 [Afatinib] (tested concentration range 0.1-1000 nM) | 0 | 0 | 0.3 | 0 | 0 | 2.7 | 3.4 | 0 | 0 | 0 | 0.3
5 | Cn1ncc(Cl)c1-c1cc(C(=O)N[C@H](CN)Cc2cccc(F)c2)sc1Cl [Afuresertib] (tested concentration range 0.1-1000 nM) | 0 | 0.6 | 1.5 | 1.7 | 0 | 17 | 4.6 | 2 | 0.6 | 0.1 | 3.2
6 | CCc1cc2c(cc1N1CCC(N3CCOCC3)CC1)C(C)(C)c1[nH]c3cc(C#N)ccc3c1C2=O [Alectinib] (tested concentration range 0.1-1000 nM) | 0 | 0 | 0.2 | 0 | 0 | 0.5 | 0.2 | 0.3 | 0 | 0 | 1
7 | COc1cc(Nc2ncc3c(n2)-c2ccc(Cl)cc2C(c2c(F)cccc2OC)=NC3)ccc1C(=O)O [Alisertib] (tested concentration range 1-10000 nM) | 3.5 | 16.3 | 9.4 | 4.5 | 3.3 | 9.6 | 0 | 6 | 1.2 | 7.6 | 4.9
8 | Oc1ncnc2[nH]ncc12 [Allopurinol] (tested concentration range 1-10000 nM) | 0 | 0 | 0 | 0 | 0 | 0 | 0 | 0 | 0 | 0 | 0
9 | Cc1nc(NC(=O)N2CCC[C@H]2C(N)=O)sc1-c1ccnc(C(C)(C)C(F)(F)F)c1 [Alpelisib] (tested concentration range 0.2-2500 nM) | 3.4 | 1.3 | 2.5 | 2.6 | 2.1 | 1.1 | 4.8 | 3.1 | 3 | 0 | 2.9
10 | CN1CC[C@H](c2c(O)cc(O)c3c(=O)cc(-c4ccccc4Cl)oc23)[C@H](O)C1 [Alvocidib] (tested concentration range 1-10000 nM) | 15.4 | 16.5 | 16.8 | 12.7 | 16.5 | 18.2 | 17.4 | 15.4 | 13.9 | 10 | 15.9
11 | CCN(CC)CCNC(=O)c1c(C)[nH]c(/C=C2\C(=O)Nc3ccc(-c4csc(-c5ccccc5)n4)cc32)c1C [Amcasertib] (tested concentration range 1-10000 nM) | 0 | 0 | 2.3 | 7.1 | 0 | 3.5 | 6.8 | 6.6 | 0 | 0 | 7
12 | CCC1(c2ccc(N)cc2)CCC(=O)NC1=O (stereo unspecified) [Aminoglutethimide] (tested concentration range 1-10000 nM) | 0 | 0 | 0 | 0 | 0.2 | 0.3 | 0 | 0 | 0 | 0 | 0
13 | COc1cc(NS(C)(=O)=O)ccc1Nc1c2ccccc2nc2ccccc12 [Amsacrine] (tested concentration range 1-10000 nM) | 7.1 | 11.1 | 6.7 | 2.4 | 3.1 | 17 | 10.1 | 2.2 | 3.8 | 7.7 | 3.2
14 | O=C1CN2Cc3c(ccc(Cl)c3Cl)N=C2N1 [Anagrelide] (tested concentration range 1-10000 nM) | 8.8 | 0 | 0.6 | 0 | 7.2 | 0 | 0 | 0.6 | 0 | 0 | 8.4
15 | CC(C)(C#N)c1cc(Cn2cncn2)cc(C(C)(C)C#N)c1 [Anastrozole] (tested concentration range 1-10000 nM) | 0 | 0 | 0 | 0 | 0 | 0 | 0 | 0 | 0 | 0 | 0
16 | CNC(=O)c1ccc(N2C(=S)N(c3cnc(C#N)c(C(F)(F)F)c3)C(=O)C23CCC3)cc1F [Apalutamide] (tested concentration range 1-10000 nM) | 0 | 0 | 0.8 | 0 | 0.8 | 2.7 | 0 | 0.1 | 0.2 | 0.9 | 0.2
17 | N#CC1(c2ccc(NC(=O)c3cccnc3NCc3ccncc3)cc2)CCCC1 [Apatinib] (tested concentration range 1-10000 nM) | 2.2 | 0 | 0 | 0 | 1.8 | 5.8 | 0 | 0 | 2.6 | 0 | 0
18 | O=C(Nc1ccc(OC(F)(F)Cl)cc1)c1cnc(N2CC[C@@H](O)C2)c(-c2cc[nH]n2)c1 [Asciminib] (tested concentration range 0.1-1000 nM) | 0 | 0 | 0 | 0 | 0 | 0 | 0 | 0 | 0 | 0 | 0.5
19 | CC(C)c1c(C(=O)Nc2ccccc2)c(-c2ccccc2)c(-c2ccc(F)cc2)n1CC[C@@H](O)C[C@@H](O)CC(=O)O [Atorvastatin] (tested concentration range 1-10000 nM) | 5.9 | 2.7 | 8.4 | 3.5 | 6.1 | 1.1 | 3.3 | 5.4 | 5.2 | 3 | 4.7
20 | CC(=O)OC[C@H]1O[C@@H]([S-])[C@H](OC(C)=O)[C@@H](OC(C)=O)[C@@H]1OC(C)=O.CCP(CC)CC.[Au+] [Auranofin] (tested concentration range 0.2-2500 nM) | 7.2 | 5.2 | 5 | 3.3 | 5.1 | 13.1 | 5.7 | 3.5 | 5.4 | 0 | 3.7
21 | Cc1nc2cccc(N)c2c(=O)n1C1CCC(=O)NC1=O (stereo unspecified) [Avadomide] (tested concentration range 1-10000 nM) | 0 | 0 | 0 | 2.2 | 0.4 | 0 | 0 | 0 | 0 | 0.1 | 0
22 | CNC(=O)c1ccccc1Sc1ccc2c(/C=C/c3ccccn3)n[nH]c2c1 [Axitinib] (tested concentration range 1-10000 nM) | 5.5 | 4.9 | 5.1 | 4.2 | 5.5 | 5.7 | 1.6 | 2 | 3.3 | 0.8 | 2.8
23 | Nc1ncn([C@@H]2O[C@H](CO)[C@@H](O)[C@H]2O)c(=O)n1 [Azacitidine] (tested concentration range 1-10000 nM) | 3.2 | 2 | 3 | 2.3 | 1.8 | 2.4 | 2.8 | 0.5 | 2.2 | 2.6 | 2.3
24 | Cc1cc(-c2nc(-c3ccc(OC(F)(F)F)cc3)no2)nn1Cc1ccnc(N2CCN(C3CC3)CC2)c1 [BAY 87-2243] (tested concentration range 0.1-1000 nM) | 0 | 23.2 | 1.6 | 0 | 0.5 | 24.8 | 19.8 | 0 | 0 | 26.4 | 0
25 | O=C(Nc1cccc(Nc2ncc(Br)c(NCCc3cnc[nH]3)n2)c1)N1CCCC1 [BX-912] (tested concentration range 1-10000 nM) | 10 | 9.9 | 7.5 | 3.1 | 7.6 | 3.5 | 1.9 | 8.1 | 6.2 | 7.6 | 6.1
26 | CCS(=O)(=O)N1CC(CC#N)(n2cc(-c3ncnc4[nH]ccc34)cn2)C1 [Baricitinib] (tested concentration range 0.2-2500 nM) | 0 | 0 | 0 | 0 | 0 | 0 | 0 | 0 | 0 | 0 | 0
